The structures appear in SMILES notation.

The nature of data set [1]: solubility in 1.5 mol/liter aqueous NaOH at 55° C. (visual). As to conditions: 1.5 mol/liter NaOH at 55° C., visual observation.
Another data set is described as follows: physchem. Conditions: DMSO/water=7/3 solvent system.

For `CCN(CC)S(=O)(=O)c1ccc(C)cc1` [A-42], the Solubility in data set [1] is reported as under 1%. This compound returned a pKa in “physchem” of over 14.
Taken in the same sequence, the figures for `OC(c1ccccc1)(c1ccccc1)c1ccccc1` [D-7] were under 1% and over 14.
The matching figures for `CN(C(=O)c1ccccc1)c1ccccc1` [FA-1]: under 1% and over 14.
The matching figures for `CCN(C(=O)C1CCCCC1)C1CCCCC1` [FB-2]: under 1% and over 14.
Compound `O=C(C1CCCCC1)N(C1CCCCC1)C1CCCCC1` [FB-6] had a Solubility in data set [1] of under 1%. This compound registered a pKa in the data set “physchem” of over 14.
